# Patent US12508261B2, “Methods of treating depression with vortioxetine” (Rundle Research LLC, priority 2017, dated 2025)
# Where “and” joins values, the source holds several entries; their conditions need not be identical. Identical values can stand only once. Like-named read-outs stand apart in the source and are kept apart here.
# Test: Clinical pharmacokinetic study (RUN-001): vortioxetine 5 mg once daily for 29 days, then 28 days washout, obese vs normal-weight subjects
# Assay type: in vivo, human
# Details: for Observed Clss: (5 mg/day)/AUC29; for Predicted CLss: (5 mg/day)/Css; for Observed accumulation ratio: AUC29/AUC1; for Predicted accumulation ratio: from elimination rate constant and 1 day dose interval
# Procedure: To test if the obese patients would require different washout guidelines for preventing serotonin syndrome, 16 obese subjects (BMI≥35) and 13 normal subjects (BMI<25) completed a clinical trial where they were administered daily with low doses (5 mg/day) of vortioxetine for 29 days in a controlled study. All subjects were subsequently tracked for 28 days after discontinuing vortioxetine on day 29. Blood samples were collected and processed according to standard techniques.
# The normal-weight control group consisted of healthy male and female volunteers aged 18 to 45 years. Their body mass index (BMI) values fell in the range of […]. […] Normal weight and obese subjects were matched as closely as possible for gender and age.
# CYP2D6 genotype status was determined from whole blood samples drawn from each subject. Known alleles of CYP2D6 were tested for, as well as the presence of gene duplications (LabCorp, Inc.). CYP2D6 metabolizer status was categorized as ultra-rapid, extensive, intermediate, or poor. Ultra-rapid and poor metabolizers were not included in the study.
# All subjects received vortioxetine, 5 mg once daily in the morning, for 29 days. The first dose was on Day 1, and the last dose was on Day 29. Blood sampling continued for another 28 days after the last dose, through Day 57.
# Subjects spent 12 hours in the study unit on Day 1 (first dose of vortioxetine) and Day 29 (last dose of vortioxetine). On those two study days, venous blood samples (7 mL each) were drawn prior to the dose of vortioxetine, and at 1, 2, 4, 6, 8, 10, and 12 hours after dosage.
# During the 29-day period of daily vortioxetine administration, subjects returned to the study unit in the morning of the following study days: 2, 3, 5, 8, 10, 12, 15, 17, 19, 22, 24, 26, and 29. At each visit, a single venous blood sample (7 mL) was drawn before the daily dose of vortioxetine. Subjects underwent a brief interview to assess subjective effects and possible adverse events. Subjects were then discharged until the next scheduled visit. They were provided with vortioxetine doses sufficient for daily morning administration until the next visit. No more than 2 consecutive doses of vortioxetine were taken on an outpatient basis.
# On Day 29 (the final dose of vortioxetine), subjects spent 12 hours in the study unit as described above. They returned to the study unit for a single blood sample on the mornings of the following Days: 30, 31, 33, 36, 38, 40, 43, 45, 47, 50, 52, 54, and 57.
# Plasma concentrations of vortioxetine were determined by liquid chromatography—mass spectrometry using a Shimadzu HPLC system coupled to a Sciex API-4000 mass spectrometer.
# The internal standard (vortioxetine-d8) was added to calibration standards, quality control samples, and unknown study samples. All samples were extracted with methyl tert-butyl ether. The organic phase was separated and evaporated to dryness; the reconstituted extract was injected into the HPLC system. The HPLC column was a Unison UK-C18, 50 mm×2 mm, 3 micron particle size. The mobile phase consisted of an organic component (0.1% formic acid in acetonitrile) and an aqueous component (0.1% formic acid and 2 mM ammonium acetate in water). This was delivered in gradient mode at a net flow rate of 0.4 mL/min, with the organic fraction varying from 40% to 96%. m/z monitored were: 299.1/150.1 for vortioxetine, and 307.1/153 for vortioxetine-d8. The limit of quantitation was 0.1 ng/mL. […] All samples from a given study subject were extracted and analyzed at the same time using the same calibration standards.
# Based on the clinical trials discussed above, several equations were derived which allow an individual to calculate the washout period (i.e., the time between stopping vortioxetine and initiating treatment with an MAOI). Data points to consisted of pre-dose plasma vortioxetine concentration (C) on each study day (t), both during (Days 1-29) and after (Days 30-57) the period of vortioxetine administration. […]
# [1] = Normal-weight subjects, mean ± SD
smiles,measurement,setting,value
Cc1ccc(Sc2ccccc2N2CCNCC2)c(C)c1 [vortioxetine],Css,"Normal-weight subjects, 5 mg/day, mean ± SD",3.75 ± 1.72 ng/mL
same,Observed Clss,[1],903 ± 450 mL/min
same,Predicted CLss,[1],1172 ± 679 mL/min
same,Observed accumulation ratio,[1],4.46 ± 1.10
same,Predicted accumulation ratio,[1],3.72 ± 0.77
same,Css,"Obese subjects, 5 mg/day, mean ± SD",4.23 ± 1.68 ng/mL
same,Observed Clss,"Obese subjects, mean ± SD",809 ± 331 mL/min
same,Predicted CLss,"Obese subjects, mean ± SD",935 ± 362 mL/min
same,Observed accumulation ratio,"Obese subjects, mean ± SD",5.24 ± 1.86
same,Predicted accumulation ratio,"Obese subjects, mean ± SD",5.22 ± 1.75
same,half-life,"both sexes, human, plasma, 5 mg/day, Normal-weight subjects, 5 mg/day, mean ± SD, read-out: Washout half-life (converted)",53 h
same,half-life,"both sexes, human, plasma, 5 mg/day, Obese subjects (BMI>=35), 5 mg/day, mean ± SD, read-out: Washout half-life (converted)",78.2 h
same,half-life,"both sexes, human, plasma, 5 mg/day, normal weight patients, read-out: elimination half-life (converted)",53 h
same,concentration at 504 h,"both sexes, human, plasma, 5 mg/day, normal patients (non-obese and/or normal CYP2D6 metabolizers), read-out: vortioxetine remaining in the blood plasma 21 days after stopping",0.54 ng/mL
same,AUC(0-t),"both sexes, human, plasma, oral, 5 mg/day, Normal-weight subjects, 5 mg/day, mean ± SD, read-out: AUC0-24 Day 1",24.8 ± 8.1 ng·h/mL
same,AUC(0-t),"both sexes, human, plasma, oral, 5 mg/day, Normal-weight subjects, 5 mg/day, mean ± SD, read-out: AUC0-24 Day 29",112 ± 48.7 ng·h/mL
same,half-life,"both sexes, human, plasma, oral, 5 mg/day, Obese subjects (BMI>=35), 5 mg/day, mean ± SD, read-out: Accumulation half-life (converted)",79.7 h
same,AUC(0-t),"both sexes, human, plasma, oral, 5 mg/day, Obese subjects, 5 mg/day, mean ± SD, read-out: AUC0-24 Day 1",22.6 ± 4.2 ng·h/mL
same,AUC(0-t),"both sexes, human, plasma, oral, 5 mg/day, Obese subjects, 5 mg/day, mean ± SD, read-out: AUC0-24 Day 29",119 ± 46.3 ng·h/mL
same,half-life,"both sexes, human, plasma, oral, 5 mg/day, normal subjects, read-out: plasma elimination half-life, range",30 to 80 h
same,half-life,"both sexes, human, plasma, oral, 5 mg/day, obese subjects, read-out: plasma elimination half-life, range",54 to 171 h
same,half-life,"human, plasma, 5 mg/day, one obese subject, CYP2D6 intermediate metabolizer (FIG. 8), read-out: accumulation half-life (converted)",173 h
same,half-life,"human, plasma, 5 mg/day, one obese subject, CYP2D6 intermediate metabolizer (FIG. 8), read-out: washout half-life (converted)",168 h
same,half-life,"human, plasma, im, 5 mg/day, individual subject, Normal cohort (BMI<25), IM, read-out: T1/2 (converted)",71.8 h
same,half-life,"human, plasma, im, 5 mg/day, individual subject, Obese cohort (BMI>=35), IM, read-out: T1/2 (converted)",171 h
same,Css,"individual subject, Normal cohort (BMI<25), IM, 5 mg/day",7.8 ng/mL
same,Css,"individual subject, Obese cohort (BMI>=35), IM, 5 mg/day",9.27 ng/mL
same,Css,"individual subjects, Normal cohort (BMI<25), EM, 5 mg/day",2.01 ng/mL and 3.31 ng/mL and 3.29 ng/mL and 3.51 ng/mL and 4.06 ng/mL and 3.21 ng/mL and 1.4 ng/mL and 1.54 ng/mL and 5.24 ng/mL and 5.42 ng/mL and 4.14 ng/mL and 3.13 ng/mL
same,Css,"individual subjects, Obese cohort (BMI>=35), EM, 5 mg/day",4.32 ng/mL and 4.58 ng/mL and 2.08 ng/mL and 4.57 ng/mL and 1.97 ng/mL and 3.44 ng/mL and 4.8 ng/mL and 4.75 ng/mL and 4.1 ng/mL and 3.22 ng/mL and 3.39 ng/mL and 3.38 ng/mL and 4.66 ng/mL and 4.85 ng/mL
same,washout period needed to attain about 0.14% of the initial plasma concentration,"obese individuals, Equation 2",31.5 days
same,time with measurable drug plasma concentrations after discontinuing vortioxetine,"obese subjects, 5 mg/day",at least 28 days
